Here are results for six molecules from PMC6752817, “Identification and characterization of a novel heparan sulfate-binding domain in Activin A longest variants and implications for function” (PLoS ONE, 2019).

The test system of series [1] is Act A X1 and X2 variant transcripts in U937 cells. The experiment in a line: Induction of Act A variant transcripts in U937 cells, PCR. It counts as cell-based, human. On the procedure:
(§1) Total RNA was isolated using TRIzol Reagent (Thermo-Fisher) following the manufacturers protocol. Five μg of glycogen (Thermo-Fisher AM9510) was added to the aqueous phase prior to the addition of isopropanol to facilitate RNA precipitation. For some experiments, RNA quantification was determined using a Nanodrop spectrophotometer. cDNA was prepared from 2 μg of purified RNA, using oligo dT as primer, supplied with the Verso cDNA synthesis kit (Thermo-Fisher # AB1453A) or SuperScript IV Reverse Transcriptase (Thermo-Fisher #18090010) following the manufactures protocol. All PCR reactions were performed using Act A specific primers and GoTaq Green Master Mix (Promega) following the manufacturers protocols. PCR reactions were optimized by gradient PCR, using an Applied Biosystems Veriti Thermal Cycler. PCR products were size fractionated on 1% agarose gels, the bands were isolated, DNA was extracted from gel slices using Micro Bio-Spin columns (Bio Rad# 7326204) and sequenced. All DNA sequencing was performed by the NAPCore Facility at CHOP.
(§2) U937 (human pro-monocytic) and THP-1 (human monocytic) cell lines were grown in RPMI containing 10% fetal bovine serum in a humidified atmosphere of 5% CO2. Cells were treated with PMA (100 ng/ml; 160 nM) for 4 hr (23) or GM-CSF (1 ng/ml) for 8 hr in RPMI containing 1% fetal bovine serum.

The nature of series [2]: Solid-phase binding of biotinylated peptides (NA-HRP tetramers) to HS-coated plates. The settings on record: for Binding to substrate-bound HS: HS-coated 96-well plates, peptide tetramers with NA-HRP, PBST with 1% BSA, 2 hr, room temperature, OPD read at 450 nm; for Binding to HS in presence of heparin competitor: HS-coated plates, pre-incubation of peptide with excess soluble heparin. On the procedure: Fig 6 Peptides corresponding to the novel HBD bind HS with high affinity. 96-well plates were coated with HS and incubated with tetrameric peptide complexes (HBC) for 2 hrs. Plates were washed, and bound peptides were assessed by addition of OPD substrate. A and B, schematic diagram depict the amino acid sequences of Act A- X2^13-37 and Act A- X3^259-272 peptides and their location within the full-length proteins, respectively. C, solid phase binding assays of Act A peptides to HS. […] Inset, double reciprocal plot that yields a Kd of 4 nM (n = 3) for Act A- X2^13-37.
Peptides encompassing the heparin binding domains, contained the putative Cardin-Weintraub (CW) motif and a minimum of 2 flanking amino acids on the N- and C- terminal sides of the domain. Three Glycine residues were added to the N-terminus of each peptide to provide a flexible linker between an N-terminal biotin tag and the peptide itself (See Table 6). Peptides were purified by reverse phase HPLC and peptide mass was confirmed by MALDI-TOF mass spectrometry. All peptides were synthesized and purified by Peptide 2 (Chantilly, VA). Where indicated, biotinylated peptides were oligomerized into tetramers by incubation with NAHRP (each avidin molecule binding 4 biotins ([57]) as described.
Nunc MaxiSorp flat bottom 96 well plates were coated with HS in 50 mM carbonate buffer (pH 9.4) overnight at 4°C as described. All binding assays were carried out in 1 x PBS, 0.1% tween 20 (PBST) containing 1% bovine serum albumin. Plates were incubated with peptides for a minimum of 2 hr at room temperature with gentle shaking. At the termination of the assay, the plates were washed 3 times with PBST and a final rinse with PBS. Plates were developed by addition of HRP substrate O-phenylenediamine dihydrochloride (OPD) in Citrate-Phosphate buffer (25 mM citric acid, 50 mM sodium phosphate, pH 5) and read at 450 nm in a Bio-Tek Synergy HT plate reader.

Series [3] relates to U937 cell surface. The experiment in a line: Peptide binding to intact U937 cells, FACS. In kind it is cell-based, human. Particulars: formalin-fixed U937 cells; for Binding to U937 cell surface: biotinylated peptide complexed with NA-488, 2 hr on ice, FACS (FL1); for Binding to U937 cell surface in presence of heparin competitor: peptide complexed with NA-488, excess soluble heparin, FACS. Here is the method:
Fig 7 HBD peptides bind to the cell surface with avidity. A, U937 cells were incubated with peptide complexes consisting of biotinylated peptides pre-incubated with NA-488. Following incubation, the cells were washed, and bound peptide was assessed by FACS analysis. […] In contrast, Act A-X3^259-272 peptide fails to bind. Binding specificity was verified using a previously characterized peptide encompassing the high affinity HBD from BMP4. B, representative FACS plots show binding of Act A- X2^13-37 in the absence (blue line) or presence (red line) of heparin competitor. C, representative FACS plots showing binding of Act A- X2^13-37 (blue line), lack of binding by Act A-X3^259-272 (red line) and background signal generated by U937 cells alone (green line). Statistical Analysis (Student’s t test): NA488 vs ActA X2^13-37, NA488 vs BMP4: ****: P< = 0.0001, **: P< = 0.01.
U937 cells were washed with PBS and fixed with 2% buffered formalin for 20 min on ice. The cells were washed with PBS and blocked by incubation in PBS, 1% BSA for 20 min on ice. Approximately […] cells (100 μl) were incubated with peptide tetramers consisting of biotinylated peptide complexed with NA-488. Following incubation for 2 hr on ice, the cells were washed and analyzed on a BD Accuri Flow Cytometer (FL1 channel), located in the Flow Cytometry Core Laboratory at CHOP.

Series [4] relates to Act A X1 and X2 variant transcripts in THP1 cells. The experiment in a line: Induction of Act A variant transcripts in THP1 cells, PCR. It counts as cell-based, human. Particulars: GM-CSF 1 ng/ml for 8 hr. Here is the method:
as §1, §2

Series [5] has as its system Act A expression in purified human monocytes. Particulars: ref [41]; cited from earlier work. On the procedure:
It should be noted that the above transcript/protein predictions of variants are based on computational genomic analyses that were conducted initially by the MGC team using ESTs to explore the transcriptome and then subsequently confirmed by whole genome sequencing and bioinformatics. Much of the past and recent extensive literature on Act A has utilized recombinant forms of the X3 variant, but currently there is little information about the expression and structural characteristics of the X1 and X2 variants. Thus, we first asked whether these variants are expressed by myel ...

For series [6] the following is noted: rat, in vivo, iv; cited from earlier work. The text has this: As pointed out above, past and recent studies on Act A biology and function have made use of the X3 variant or the mature protein but to our knowledge, the X1 or X2 variants have not been tested. For example, Harrington et al. used recombinant Act A mature protein to clarify the structural basis by which Fs inhibits Act A signaling. […] Wang et al. carried out a detailed analysis of mechanisms involved in initiation of Act A biological activity, using the X3 ...

The test system of series [7] is TIEG expression in THP1 cells. The experiment in a line: TIEG (KLF10) mRNA induction in THP1 cells, qPCR. In kind it is cell-based, human. The settings on record: 2 hr, rhAct A or conditioned medium of AD293 cells transfected with X2 or X3 constructs. The text has this:
Fig 4 Expression and secretion of Act A variants. Expression constructs for full length X1, X2 and X3 variants were cloned into pcDNA 3.1 and transfected into AD293 and COS1 cells. A, diagram of Act A expression cassette with His tag on the 3’ end. […] Untransfected cells are shown in lane 2. […] D, immunoblots of conditioned medium samples separated under reducing conditions and probed with anti-His tag antibody. […] The band was undetectable in conditioned medium from cells transfected with the X1 vector (lanes 1, 4 and 9) or un-transfected cells (lanes 7 and 8). Lanes 4–6 are a longer exposure of lanes 1–3. E, THP1 cells were incubated for 2 hrs with conditioned media from AD293 cells that were untransfected (U) or transfected with X2 or X3 constructs. The cells were processed for q-PCR analysis of TIEG expression, an early response gene induced by Act A and TGF-β. […]
To assess biological activity of the expressed Act A variants, THP1 cells were incubated with 3 ml of conditioned medium obtained from cells transfected with each Act A variant for 2 hr, in the absence or presences of an ActA neutralizing antibody (BioLegend # 94746) the cells were pelleted and total RNA was isolated using TRIzol Reagent as described above. Induction of Kruppel-like factor 10 (KLF10, TIEG; accession NM_005655) mRNA, an early response gene induced by Act A and TGF-β was assessed by qPCR.

[8] abbreviates: PMA 100 ng/ml (160 nM) for 4 hr, semi-quantitative PCR.

“Also recorded” adds a separate entry of the source.

`CCCCCCCCCCCCCC(=O)O[C@@H]1[C@@H](C)[C@@]2(O)[C@@H](C=C(CO)C[C@]3(O)C(=O)C(C)=C[C@@H]23)[C@@H]2C(C)(C)[C@]12OC(C)=O` [PMA, Phorbol 12-myristate 13-acetate, reference compound]: in series [1] (setting [8]), the “Expression of Act A X1 variant transcript in U937 cells” value is “undetectable” and the “Expression of Act A X2 variant transcript in U937 cells” value is given as “stimulated expression of transcripts encoding the X2 variant in U937 cells; also recorded: induced expression of Act A-X2”.
[B]-GGGGKKKKKEEEGEGKKK [X3^259-272]: the “Binding to substrate-bound HS” value in series [2] is “failed to interact with HS at any concentration tested; also recorded: failed to interact with substrate-bound HS”; in series [2] (listed as Act A-X3^259-272) it was “displays minimal binding”. Moreover, the “Binding to U937 cell surface” value is “failed to interact with the cells; also recorded: failed to interact with substrate-bound HS or the cell surface” in series [3] and “fails to bind” in series [3] (listed as Act A-X3^259-272).
With “[B]-GGGLKRRRKKKTPKKKIKKSTHTKKPAR [X2^13-37, biotinylated synthetic peptide encompassing the novel HBD, identical in X1 and X2]”, in series [2], the “Binding to substrate-bound HS” value was “interacted with HS with high affinity” and the “Binding to HS in presence of heparin competitor” value is “binding was blocked by pre-incubation of the peptide with excess heparin”. Moreover, in series [2] (listed as Act A- X2^13-37), the “Binding to substrate-bound HS” value is recorded as “binds HS with high affinity” and the “Binding to HS in presence of heparin competitor” value is on record as “its binding is blocked by addition of soluble heparin”. Besides, in series [3], the “Binding to U937 cell surface” value was “readily and efficiently interacted with the cell surface”; the “Binding to U937 cell surface in presence of heparin competitor” value was “binding was blocked by pre-treatment with heparin”. Also, in series [3] (listed as Act A- X2^13-37), the “Binding to U937 cell surface” value is recorded as “readily binds to the cell surface” and the “Binding to U937 cell surface in presence of heparin competitor” value is listed as “its interaction is blocked by soluble heparin competitor”.
Take “granulocyte macrophage-colony stimulating factor [GM-CSF]”: in series [1] (GM-CSF 1 ng/ml for 8 hr, PCR), the “Expression of Act A X1 variant transcript in U937 cells” value is “only stimulated expression of the X1 variant in U937 cells; also recorded: induced expression of both Act A-X2 and -X1”; the “Expression of Act A X2 variant transcript in U937 cells” value is “upregulated the X2 variant in both cell lines; also recorded: induced expression of both Act A-X2 and -X1”. The “Expression of Act A X2 variant transcript in THP1 cells” value in series [4] is listed as “upregulated the X2 variant in both cell lines; also recorded: induced expression of Act A-X2”. Further, the “Induction of Act A expression in purified human monocytes” value in series [5] was “induces strong expression of Act A in purified human monocytes”.
On to “mature protein: mature Act A protein (cited studies)”, for which the “Circulating half-life (t1/2 fast)” value in series [6] is 5.5 min.

B1: rhAct A: commercially available recombinant human Act A (protein, UniProt P08476 311-426, looked up)
Inhibin beta A chain: GLECDGKVNICCKKQFFVSFKDIGWNDWIIAPSGYHANYCEGECPSHIAGTSGSSLSFHSTVINHYRMRGHSPFANLKSCCVPTKLRPMSMLYYDDGQNIIKKDIQNMIVEECGCS
modifications: Inhibin beta A chain
Turning to B1, the “Induction of TIEG expression (words)” value is “TIEG was rapidly upregulated” in series [7] and “up-regulated” in series [7] (listed as rhActA).
